Measured values published in publication PMC9981747, “A covalent BTK ternary complex compatible with targeted protein degradation” (Nature Communications, 2023).
Several values for one entry are separate records, joined by “and”; a condition that tells them apart may be missing. Equal values may be shown once.

Biological target: T1, BTK^FL (Homo sapiens, UniProt Q06187)
T1 construct: we used a full-length BTK (aa1-659) with a C terminal Tobacco Etch Virus protease (TEV) site; expressed in transfected cells; host or cells: Expi293 (HEK293)
Test: Covalent modification of BTK^FL in Expi293 cells without cIAP1, immunopurification and intact mass spectrometry
Format: cell-based
Details: for Cov Form Over Time (% covalent bond formation): 5 µM, no exogenous cIAP1, replicates; for BTK^FL covalently modified: 18 h, n = 1
Protocol: For covalent modification detection assays, the compound was added to Expi293 cells after enhancer treatment. At each timepoint 10 mL of cells were harvested, rapidly cooled to 4 °C in an ice bath, and centrifuged at 100 x g at 4 °C for 5 min. The pellet was washed twice with ice-cold PBS, snap-frozen in liquid nitrogen, and stored at −80 °C. Each pellet was resuspended in 0.1 mL ice-cold RIPA Buffer supplemented with 40 µM BCNC (to outcompete any remaining BCCov), protease inhibitor, and benzonase, and sonicated with 10 brief blasts at power 20. Lysate was centrifuged at 15 K x g for 20 min at 4 °C and prepared for western blotting as detailed above. When samples were evaluated for covalent adduct formation, a purification step was required. Briefly, the ~1 mL of clarified lysate was added to 9 mL of FLAG binding buffer (25 mM HEPES 7.5, 300 mM NaCl, 10% glycerol). These samples were incubated with 250 µL of anti-FLAG M2 affinity resin (Millipore-Sigma Cat. # A2220) for 3 h at 4 °C with gentle nutation. Samples were washed via gravity column filtration and eluted with 0.2 mg/ml FLAG Peptide (DYKDDDDK, CPC Scientific Peptide Company). Each sample was concentrated to 0.1 mg/mL using an Amicon Ultra-15 Centrifugal filter with a 50 kDa MWCO (Millipore-Sigma Cat. # UFC905024). Details on mass spectrometry analysis are below.
Each sample was analyzed using intact mass spectrometry under denaturing conditions using an Agilent 6530 QToF Mass Spectrometer coupled with an Agilent Infinity 1290 UPLC chromatography system. Spectra were analyzed using ChemLaunch v1.6.8 (Healex Systems), Mass Hunter V7.0 (Agilent Technologies), and BioConfirm v8.0 (Agilent Technologies). For all proteins analyzed, approximately 2 μl of 0.1–0.4 mg/ml protein sample was added to 8 μl 0.2% trifluoroacetic acid (TFA) (Sigma T6508–100 mL). Subsequently, 5 μl of each sample was injected onto the instrument. Depending on the resolution, the amount of protein loaded was altered. Theoretical versus observed molecular weight is presented in Supplementary Table 1. While we have not experimentally determined the post-translational modifications (PTMs) resulting in observed molecular weight, we believe a loss of methionine and acetylation are likely. Variations between theoretical and observed masses may also be due to the resolution of the deconvoluted spectra leading to imperfect peak identification, particularly for a protein with heterogeneous phosphorylation states. Variation of several Daltons is observed between biological replicates and individual experiments.

T1 sequence (Q06187 whole entry, the tested form may be a part): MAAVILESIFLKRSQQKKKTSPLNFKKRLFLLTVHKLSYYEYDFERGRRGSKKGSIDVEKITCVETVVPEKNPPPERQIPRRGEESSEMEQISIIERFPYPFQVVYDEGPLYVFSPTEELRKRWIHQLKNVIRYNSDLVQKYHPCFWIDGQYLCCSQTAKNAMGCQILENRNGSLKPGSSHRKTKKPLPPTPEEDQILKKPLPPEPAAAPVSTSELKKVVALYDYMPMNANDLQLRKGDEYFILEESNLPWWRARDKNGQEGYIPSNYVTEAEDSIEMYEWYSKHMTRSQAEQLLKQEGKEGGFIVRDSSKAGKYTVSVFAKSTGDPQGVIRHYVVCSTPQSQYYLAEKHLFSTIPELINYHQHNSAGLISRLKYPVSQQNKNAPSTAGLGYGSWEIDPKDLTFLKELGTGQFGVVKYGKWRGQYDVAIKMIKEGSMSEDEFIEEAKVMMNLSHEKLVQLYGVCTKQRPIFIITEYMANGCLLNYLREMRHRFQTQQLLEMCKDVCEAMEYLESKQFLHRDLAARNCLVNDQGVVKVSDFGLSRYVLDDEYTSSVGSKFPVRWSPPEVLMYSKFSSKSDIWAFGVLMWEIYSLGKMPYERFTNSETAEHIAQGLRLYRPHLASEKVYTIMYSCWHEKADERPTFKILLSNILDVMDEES

CNC(C)C(=O)NC(C(=O)N1CC(NC(=O)COCCN2CCN(CC=CC(=O)N3CCCC(n4nc(-c5ccc(Oc6ccccc6)cc5)c5c(N)ncnc54)C3)CC2)CC1C(=O)NC1CCCc2ccccc21)C1CCCCC1 (stereo not drawn) [BCCov]
Cov Form Over Time (% covalent bond formation) (0.5 h): 5.67% and 6.21% and 5.89% | Cov Form Over Time (% covalent bond formation) (1 h): 8.64% and 10.21% and 9.49% | Cov Form Over Time (% covalent bond formation) (2 h): 14.47% and 13.21% and 14.33% | Cov Form Over Time (% covalent bond formation) (3.5 h): 19.26% and 19.25% and 19.86% | Cov Form Over Time (% covalent bond formation) (5.5 h): 31.90% and 34.21% and 30.28% | Cov Form Over Time (% covalent bond formation) (7 h): 34.24% and 36.81% and 34.22% | Cov Form Over Time (% covalent bond formation) (17 h): 33.97% and 36.13% and 34.85% | BTK^FL covalently modified (5 uM): 35.00% | BTK^FL covalently modified (10 uM): 64.70% | BTK^FL covalently modified (15 uM): 77.49% | BTK^FL covalently modified (30 uM): 94.20% | time that the level of covalent modification remains stable post-treatment (single dose 20 µM): at least 48 h
